This test relates to ALP in normal human articular chondrocytes (NHACs). Nature of the test: Alkaline Phosphatase (ALP) activity assay (staining and quantitation) in NHACs, prevention of chondrocyte hypertrophy. It is filed as cell-based. The following applies: human IL-1 beta 10 ng/mL, 12 days; for IC50: Fast Blue RR staining, high content imaging, read-out: ALP in NHAC IC50; for Emax: read-out: ALP in NHAC (% Efficacy). The procedure, abridged:
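Hypertrophy readout: ALP staining (Fast Blue RR with naphthol AS-MX phosphate) plus Hoechst, imaged at 561 nm and/or quantified by high-content multiwavelength cell scoring. Before staining, NHACs (7,500/well, DMEM/10% FBS) were exposed to compound for 5 h, then cultured with 10 ng/mL IL-1β for 12 days at 37 °C.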

[1] abbreviates: Chondrocyte, 288 h, value in parentheses.

We go through 17 compounds from patent US12257243B2, “5-hydroxy-7-oxabicyclo[2.2.1]heptane-2-carboxamide derivatives for inducing chondrogenesis for treating joint damage” (NOVARTIS AG, priority 2018, dated 2025).

Where two headings read alike, the source gives them in different places.

In the case of `Cn1nc(C(F)(F)F)cc1[C@H]1[C@H]2O[C@H](C[C@@H]2O)[C@@H]1C(=O)Nc1ccc(C(F)(F)F)c(Cl)c1` (racemic) [Example 73, rac-(1R,2R,3S,4R,5)-N-(3-chloro-4-trifluoromethyl)phenyl)-5-hydroxy-3-(1-methyl-3-(trifluoromethyl)-1H-pyrazol-5-yl)-7-oxabicyclo[2.2.1]heptane-2-carboxamide], for the setting “Chondrocyte, 288 h”, the IC50 stood at 7.1 µM. Besides, the Emax under setting [1] came out at 105%.
In the case of `Cc1c(NC(=O)[C@@H]2[C@@H](c3cn(C)nc3C(F)(F)F)[C@H]3O[C@@H]2C[C@@H]3O)cccc1C(F)(F)F` (racemic) [Example 42, rac-(1R,2R,3S,4R,5S)-5-hydroxy-3-(1-methyl-3-(trifluoromethyl)-1H-pyrazol-4-yl)-N-(2-methyl-3-(trifluoromethyl)phenyl)-7-oxabicyclo[2.2.1]heptane-2-carboxamide], the IC50 (Chondrocyte, 288 h) is greater than 30 µM. The Emax under setting [1] was found to be 21%.
In the case of `COc1cc(NC(=O)[C@@H]2[C@@H](c3cccc(C(F)(F)F)c3)[C@H]3O[C@@H]2C[C@@H]3O)cc(C(F)(F)F)c1` (racemic) [Example 21, rac-(1R,2R,3S,4R,5S)-5-hydroxy-N-(3-methoxy-5-trifluoromethyl)phenyl)-3-(3-(trifluoromethyl)phenyl)-7-oxabicyclo[2.2.1]heptane-2-carboxamide], for the setting “Chondrocyte, 288 h”, the half-maximal inhibitory concentration (IC50) is 24 µM. For the same compound, the Emax under setting [1] was 104%.
In the same order, the values of `Cc1ccc(NC(=O)[C@@H]2[C@@H](c3ccnc(C(F)(F)F)c3)[C@H]3O[C@@H]2C[C@@H]3O)cc1C(F)(F)F` (racemic) [Example 64, rac-(1R,2R,3S,4R,5S)-5-hydroxy-N-(4-methy-3-(trifluoromethyl)phenyl-3-(2-(trifluoromethyl)pyridin-4-yl)-7-oxabicyclo[2.2.1]heptane-2-carboxamide] are 13 µM and 83%.
In the same order, the values of `CCOc1ccc(NC(=O)[C@@H]2[C@@H](c3cccc(C(F)(F)F)c3)[C@H]3O[C@@H]2C[C@@H]3O)cc1C(F)(F)F` (racemic) [Example 24, rac-(1R,2R,3S,4R,5S)—N-(4-ethoxy-3-trifluoromethyl)phenyl)-5-hydroxy-3-(3-(trifluoromethyl)phenyl)-7-oxabicyclo[2.2.1]heptane-2-carboxamide] are 14 µM and 108%.
In the case of `Cn1cc([C@H]2[C@H]3O[C@H](C[C@@H]3O)[C@@H]2C(=O)Nc2cc(C(F)(F)F)c(Cl)cn2)c(C(F)(F)F)n1` (racemic) [Example 36, rac-(1R,2R,3S,4R,5S)—N-(5-chloro-4-(trifluoromethyl)pyridin-2-yl)-5-hydroxy-3-(1-methyl-3-(trifluoromethyl)-1H-pyrazol-4-yl)-7-oxabicyclo[2.2.1]heptane-2-carboxamide], the IC50 (Chondrocyte, 288 h) is 3.6 µM. Moreover, the Emax under setting [1] is 92%.
In the same order, the values of `Cn1cc([C@H]2[C@H]3O[C@H](C[C@@H]3O)[C@@H]2C(=O)Nc2ccc(F)c(C(F)(F)F)c2)c(C(F)(F)F)n1` (racemic) [Example 43] are 7.9 µM and 59%.
Consider `Cc1cc(C(F)(F)F)cc(NC(=O)[C@@H]2[C@@H](c3cccc(C(F)(F)F)c3)[C@H]3O[C@@H]2C[C@@H]3O)n1` (racemic) [Example 8, rac-(1R,2R,3S,4R,5S)-5-hydroxy-N-(6-methyl-4-(trifluoromethyl)pyridin-2-yl)-3-(3-(trifluoromethyl)phenyl)-7-oxabicyclo[2.2.1]heptane-2-carboxamide], for which the half-inhibitory concentration (IC50) (Chondrocyte, 288 h) worked out at 17 µM. The Emax under setting [1] worked out at 100%.
For `O=C(Nc1cc(C(F)(F)F)ccc1F)[C@@H]1[C@@H](c2cccc(C(F)(F)F)c2)[C@H]2O[C@@H]1C[C@@H]2O` (racemic) [Example 1, rac-(1R,2R,3S,4R,5S)—N-(2-fluoro-5-(trifluoromethyl)phenyl)-5-hydroxy-3-(3-(trifluoromethylphenyl)-7-oxabicyclo[2.2.1]heptane-2-carboxamide], the 50% inhibitory concentration (IC50) (Chondrocyte, 288 h) was found to be 29 µM. Moreover, the Emax under setting [1] came to 60%.
In the same order, the values of `Cc1cc(NC(=O)[C@@H]2[C@@H](c3ccnc(C(F)(F)F)c3)[C@H]3O[C@@H]2C[C@@H]3O)cc(C(F)(F)F)c1` (racemic) [Example 65, rac-(1R,2R,3S,4R,5S)-5-hydroxy-N-(3-methyl-5-(trifluoromethyl)phenyl)-3-(2-(trifluoromethyl)pyridin-4-yl)-7-oxabicyclo[2.2.1]heptane-2-carboxamide] are 20 µM and 57%.
In the same order, the values of `O=C(Nc1cccc(C(F)(F)F)c1)[C@@H]1[C@@H](c2ccnc(F)c2)[C@H]2O[C@@H]1C[C@@H]2O` (racemic) [Example 80, rac-(1R 2R,3S,4R,5S)-3-(2-fluoropyridin-4-yl)-5-hydroxy-N-(3-(trifluoromethyl)phenyl)-7-oxabicyclo[2.2.1]heptane-2-carboxamide] are 23 µM and 34%.
For the compound `O=C(Nc1ccc(C(F)(F)F)c(Cl)c1)[C@@H]1[C@@H](c2cccc(C(F)(F)F)c2)[C@H]2O[C@@H]1C[C@@H]2O` (racemic) [Example 2, rac-(1R,2R,3S,4R,5S)—N-(3-chloro-4-(trifluoromethylphenyl)-5-hydroxy-3-(3-(trifluoromethyl)phenyl)-7-oxabicyclo[2.2.1]heptane-2-carboxamide], the IC50 (Chondrocyte, 288 h) was 8.4 µM. The Emax under setting [1] was 102%.
`Cc1cc(C(F)(F)F)cc(NC(=O)[C@@H]2[C@@H](c3cn(C)nc3C(F)(F)F)[C@H]3O[C@@H]2C[C@@H]3O)n1` (racemic) [Example 41, rac-(1R,2R,3S,4R,5S)-5-hydroxy-3-(1-methyl-3-(trifluoromethyl)-1H-pyrazol-4-yl)-N-(6-methyl-4-(trifluoromethyl)pyridin-2-yl)-7-oxabicyclo[2.2.1]heptane-2-carboxamide]: the half-inhibitory concentration (IC50) (Chondrocyte, 288 h) stood at 6.3 µM. In addition, under setting [1], the Emax was 61%.
Consider `Cn1cc([C@H]2[C@H]3O[C@H](C[C@@H]3O)[C@@H]2C(=O)Nc2ccc(C(F)(F)F)c(F)c2)c(C(F)(F)F)n1` (racemic) [Example 55, rac-(1R,2R,3S,4R,5S)—N-(3-fluoro-4-(trifluoromethylphenyl)-5-hydroxy-3-(1-methyl-3-(trifluoromethyl)-1H-pyrazol-4-yl)-7-oxabicyclo[2.2.1]heptane-2-carboxamide], for which the IC50 (Chondrocyte, 288 h) came to 16 µM. The Emax under setting [1] came out at 65%.
In the case of “rac-(1R 2R,3S,4R,5S)—N-(4-fluoro-3-(trifluoromethyl)phenyl-5-hydroxy-3-(1-methyl-3-(trifluoromethyl)-1H-pyrazol-4-yl)-7-oxabicyclo[2.2.1]heptane-2-carboxamide [Example 56]”, the IC50 is greater than 30 µM. Under “value in parentheses”, the “ALP in NHAC (% Efficacy)” value was determined as 32%.
Consider `Cc1ccc(C(F)(F)F)cc1NC(=O)[C@@H]1[C@@H](c2cccc(C(F)(F)F)c2)[C@H]2O[C@@H]1C[C@@H]2O` (racemic) [Example 14, rac-(1R,2R,3S,4R,5S)-5-hydroxy-N-(2-methyl-5-(trifluoromethyl)phenyl)-3-(3-(trifluoromethyl)phenyl)-7-oxabicyclo[2.2.1]heptane-2-carboxamide], for which the IC50 (Chondrocyte, 288 h) worked out at 13 µM. Besides, the Emax under setting [1] worked out at 78%.
For `COc1ccc(NC(=O)[C@@H]2[C@@H](c3cccc(C(F)(F)F)c3)[C@H]3O[C@@H]2C[C@@H]3O)cc1C(F)(F)F` (racemic) [Example 20, rac-(1R,2R,3S,4R,5S)-5-hydroxy-N-(4-methoxy-3-trifluoromethyl)phenyl)-3-(3-(trifluoromethyl)phenyl)-7-oxabicyclo[2.2.1]heptane-2-carboxamide], the IC50 (Chondrocyte, 288 h) was determined as 14 µM. Moreover, under setting [1], the Emax is 102%.
